Source: ChEMBL document CHEMBL4706524, “Discovery of sulfonyl hydrazone derivative as a new selective PDE4A and PDE4D inhibitor by lead-optimization approach on the prototype LASSBio-448: In vitro and in vivo preclinical studies” (Eur J Med Chem, 2020)

What was measured:
in vitro [1] = conditions: PAMPA
in vitro [2] = conditions: PAMPA; remark: listed apart in the source
Description: Permeability of the compound by PAMPA-TGI assay

[3] = pampa, 8 h
[4] = target: 3',5'-cyclic-AMP phosphodiesterase 4B (Homo sapiens, UniProt Q07343); test: Inhibition of human recombinant PDE4B1 using FAM-cAMP as substrate at 10 uM measured after 1 hr by IMAP TR-FRET assay
Sequence of 3',5'-cyclic-AMP phosphodiesterase 4B (Q07343 whole entry): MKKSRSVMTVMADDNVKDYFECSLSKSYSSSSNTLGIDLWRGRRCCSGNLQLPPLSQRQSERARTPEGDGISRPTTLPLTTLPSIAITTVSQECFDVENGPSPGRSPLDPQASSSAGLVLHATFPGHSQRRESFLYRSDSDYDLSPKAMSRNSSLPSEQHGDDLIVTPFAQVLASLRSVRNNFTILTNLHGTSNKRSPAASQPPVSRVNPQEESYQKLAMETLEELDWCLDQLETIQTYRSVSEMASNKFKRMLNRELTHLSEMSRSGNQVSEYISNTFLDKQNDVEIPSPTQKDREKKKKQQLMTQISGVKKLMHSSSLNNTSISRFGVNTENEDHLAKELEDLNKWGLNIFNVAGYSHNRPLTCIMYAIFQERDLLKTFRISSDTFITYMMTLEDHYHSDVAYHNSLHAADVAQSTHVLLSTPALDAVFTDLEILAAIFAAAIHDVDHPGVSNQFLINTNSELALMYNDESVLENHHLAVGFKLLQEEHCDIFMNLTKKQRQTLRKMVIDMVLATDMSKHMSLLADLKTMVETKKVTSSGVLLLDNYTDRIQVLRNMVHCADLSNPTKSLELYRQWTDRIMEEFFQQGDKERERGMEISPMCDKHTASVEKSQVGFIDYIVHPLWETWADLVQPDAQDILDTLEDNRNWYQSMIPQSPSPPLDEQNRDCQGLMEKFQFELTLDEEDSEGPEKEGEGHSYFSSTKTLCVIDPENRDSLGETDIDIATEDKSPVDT

Homo sapiens [5] = species: Homo sapiens; test: Inhibition of human recombinant PDE4A1A using FAM-cAMP as substrate at 10 uM measured after 1 hr by IMAP TR-FRET assay
[6] = Chemical stability of the compound in KCl/HCl buffer at pH 2.0 measured upto 120 mins by HPLC-DAD analysis; conditions: pH 2, 2 h
[7] = Chemical stability of the compound in phosphate buffer at pH 7.4 measured upto 120 mins by HPLC-DAD analysis; assay type: physicochemical; conditions: pH 7.4, 2 h
[8] = target: 3',5'-cyclic-AMP phosphodiesterase 4C (Homo sapiens, UniProt Q08493); test: Inhibition of human recombinant PDE4C using FAM-cAMP as substrate at 10 uM measured after 1 hr by IMAP TR-FRET assay
Sequence of 3',5'-cyclic-AMP phosphodiesterase 4C (Q08493 whole entry): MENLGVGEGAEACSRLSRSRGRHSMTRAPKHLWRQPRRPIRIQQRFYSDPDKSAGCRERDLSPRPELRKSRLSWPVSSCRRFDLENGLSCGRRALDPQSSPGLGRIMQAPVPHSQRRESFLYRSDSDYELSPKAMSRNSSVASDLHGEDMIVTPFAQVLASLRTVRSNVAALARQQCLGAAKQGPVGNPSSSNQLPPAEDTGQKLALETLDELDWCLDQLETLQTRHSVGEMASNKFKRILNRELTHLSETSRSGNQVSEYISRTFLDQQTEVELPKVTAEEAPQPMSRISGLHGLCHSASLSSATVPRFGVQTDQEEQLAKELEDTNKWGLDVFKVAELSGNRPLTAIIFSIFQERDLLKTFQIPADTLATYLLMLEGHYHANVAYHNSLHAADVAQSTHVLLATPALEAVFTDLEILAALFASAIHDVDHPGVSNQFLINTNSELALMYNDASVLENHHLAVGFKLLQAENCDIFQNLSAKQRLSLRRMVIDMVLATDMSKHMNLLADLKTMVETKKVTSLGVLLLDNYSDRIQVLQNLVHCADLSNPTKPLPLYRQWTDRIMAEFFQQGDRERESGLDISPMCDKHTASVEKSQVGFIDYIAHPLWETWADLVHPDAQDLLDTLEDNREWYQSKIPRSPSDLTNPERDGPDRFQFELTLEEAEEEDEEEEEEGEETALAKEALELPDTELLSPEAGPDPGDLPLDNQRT

[9] = target: T1, 3',5'-cyclic-AMP phosphodiesterase 4D (Homo sapiens, UniProt Q08499); test: Inhibition of human recombinant PDE4D3 using FAM-cAMP as substrate at 10 uM measured after 1 hr by IMAP TR-FRET assay
T1 sequence (Q08499 whole entry): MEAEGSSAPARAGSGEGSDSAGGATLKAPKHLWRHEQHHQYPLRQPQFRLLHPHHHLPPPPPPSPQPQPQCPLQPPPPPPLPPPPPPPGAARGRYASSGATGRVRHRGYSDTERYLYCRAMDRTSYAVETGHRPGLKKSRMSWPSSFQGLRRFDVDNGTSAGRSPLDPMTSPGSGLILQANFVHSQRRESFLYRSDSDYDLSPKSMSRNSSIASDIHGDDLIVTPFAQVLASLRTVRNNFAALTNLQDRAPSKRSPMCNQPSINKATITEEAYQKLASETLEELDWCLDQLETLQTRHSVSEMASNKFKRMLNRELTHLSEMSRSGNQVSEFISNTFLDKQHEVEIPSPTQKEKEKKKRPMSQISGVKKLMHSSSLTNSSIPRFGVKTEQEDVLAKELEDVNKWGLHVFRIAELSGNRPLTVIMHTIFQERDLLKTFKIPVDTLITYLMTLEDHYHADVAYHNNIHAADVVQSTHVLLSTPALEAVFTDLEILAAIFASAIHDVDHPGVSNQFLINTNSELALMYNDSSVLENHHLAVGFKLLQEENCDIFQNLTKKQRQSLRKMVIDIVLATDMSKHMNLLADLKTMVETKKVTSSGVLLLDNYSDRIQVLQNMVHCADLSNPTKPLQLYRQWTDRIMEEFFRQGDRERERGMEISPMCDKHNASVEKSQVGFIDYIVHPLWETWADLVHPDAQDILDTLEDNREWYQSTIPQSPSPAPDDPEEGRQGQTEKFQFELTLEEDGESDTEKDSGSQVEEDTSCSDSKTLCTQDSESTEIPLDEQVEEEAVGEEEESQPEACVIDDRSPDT

in vitro [10] = conditions: PAMPA; remark: listed apart in the source
Description: Permeability of the compound incubated for 165 mins by PAMPA-BBB assay

Trachea [11] = test: […] activity in non-sensitized guinea pig-derived trachea assessed as decrease in CCh-induced tracheal tonic contraction in absence of functional epithelium treated with compound after contraction stabilised; assay type: tissue-based; conditions: Cavia porcellus
Trachea [12] = test: […] activity in OVA-sensitized guinea pig-derived trachea assessed as decrease in CCh-induced tracheal tonic contraction in absence of functional epithelium treated with compound after contraction stabilised; assay type: tissue-based; conditions: Cavia porcellus
Trachea [13] = test: […] activity in OVA-sensitized guinea pig-derived trachea assessed as decrease in CCh-induced tracheal tonic contraction in presence of functional epithelium treated with compound after contraction stabilised; assay type: tissue-based; conditions: Cavia porcellus
Trachea [14] = test: […] activity in non-sensitized guinea pig-derived trachea assessed as decrease in CCh-induced tracheal tonic contraction in presence of functional epithelium; assay type: tissue-based; conditions: Cavia porcellus
[15] = Inhibition of human recombinant PDE4A1A using FAM-cAMP as substrate measured after 1 hr by IMAP TR-FRET assay
[16] = target: T1, 3',5'-cyclic-AMP phosphodiesterase 4D; test: Inhibition of human recombinant PDE4D3 using FAM-cAMP as substrate measured after 1 hr by IMAP TR-FRET assay
Mus musculus [17] = test: Antiinflammatory activity against A/J mouse assessed as decrease in LPS-induced airway hyperreactivity at 6.25 umol/kg, po treated via gavage for 1 hr before LPS stimulation measured after 24 hrs by whole body plethysmography relative to control; assay type: functional; conditions: 25 h
Mus musculus [18] = test: Antiinflammatory activity against A/J mouse assessed as decrease in LPS-induced TNFalpha production in lungs at 6.25 umol/kg, po treated via gavage for 1 hr before LPS stimulation and measured after 24 hrs by ELISA relative to control; assay type: functional; conditions: 25 h
Mus musculus [19] = test: Antiinflammatory activity against A/J mouse assessed as decrease in LPS-induced airway hyperreactivity at 25 umol/kg, po treated via gavage for 1 hr before LPS stimulation measured after 24 hrs by whole body plethysmography relative to control; assay type: functional; conditions: 25 h
Homo sapiens [20] = species: Homo sapiens; test: Inhibition of human recombinant PDE4A1A using FAM-cAMP as substrate measured after 1 hr by IMAP TR-FRET assay relative to control
Mus musculus [21] = test: Antiinflammatory activity against A/J mouse assessed as decrease in LPS-induced TNFalpha production in lungs at 25 umol/kg, po treated via gavage for 1 hr before LPS stimulation and measured after 24 hrs by ELISA relative to control; assay type: functional; conditions: 25 h
[22] = target: T1, 3',5'-cyclic-AMP phosphodiesterase 4D; test: Inhibition of human recombinant PDE4D3 using FAM-cAMP as substrate measured after 1 hr by IMAP TR-FRET assay relative to control

SMILES | Papp at 8 h (in vitro [1]) [×10⁻⁶ cm/s] | Drug absorption [3] [%] | inhibition [4] [%] | inhibition (Homo sapiens [5]) [%] | Stabilty [6] | Stabilty [7] | inhibition [8] [%] | inhibition [9] [%] | also measured
CC(=O)N1CCN(c2ccc(OCC3COC(Cn4ccnc4)(c4ccc(Cl)cc4Cl)O3)cc2)CC1 (stereo not drawn) [KETOCONAZOLE] | 4.93 | 84.68 | – | – | – | – | – | – | Papp (in vitro [2]): 3.3 ×10⁻⁶ cm/s
COc1ccc(S(=O)(=O)N(C)CCc2ccc(OC)c(OC)c2)cc1 | – | – | 33 | 43 | Stable | Stable | 23.5 | 35.6 | –
COc1ccc(/C=N/N(C)S(=O)(=O)c2ccccc2C)cc1OC | – | – | < 5 | 16.2 | Unstable | Stable | 39.3 | 26.1 | –
COc1ccc(CCNS(=O)(=O)c2ccccc2C)cc1OC | – | – | < 5 | 6.1 | Stable | Stable | < 5 | < 5 | –
COc1ccc(CCNS(=O)(=O)c2cc3c(cc2C)OCO3)cc1OC | – | – | < 5 | 11.8 | Stable | Stable | 21.3 | < 5 | Papp at 2.75 h (in vitro [10]): 3.46 ×10⁻⁶ cm/s; EC50 (Trachea [11]): 43.7 µM; EC50 (Trachea [12]): 25.1 µM; EC50 (Trachea [13]): 24.5 µM; EC50 (Trachea [14]): 29.5 µM; IC50 [15]: 0.7 µM
CNC(=C[N+](=O)[O-])NCCSCc1ccc(CN(C)C)o1 [RANITIDINE] | – | 13.48 | – | – | – | – | – | – | –
O=C(Nc1c(Cl)cncc1Cl)c1ccc(OC(F)F)c(OCC2CC2)c1 [ROFLUMILAST] | 5.28 | 86.58 | – | – | – | – | – | – | Papp at 2.75 h (in vitro [10]): 8.05 ×10⁻⁶ cm/s
COc1ccc(/C=N/N(C)S(=O)(=O)c2cc3c(cc2C)OCO3)cc1OC | 13.1 | 99.3 | 22.7 | 90.4 | Unstable | Stable | 25.5 | 90.7 | IC50 [16]: 0.7 µM; inhibition in vivo at 6.25 µmol/kg (Mus musculus [17]): 99%; inhibition in vivo at 6.25 µmol/kg (Mus musculus [18]): 48.7%; EC50 (Trachea [11]): 8.13 µM; inhibition in vivo at 25 µmol/kg (Mus musculus [19]): 97%; EC50 (Trachea [12]): 3.16 µM; Emax (Homo sapiens [20]): 100%; EC50 (Trachea [13]): 6.46 µM; inhibition in vivo at 25 µmol/kg (Mus musculus [21]): 85.9%; EC50 (Trachea [14]): 8.32 µM; Emax [22]: 93%; IC50 [15]: 0.5 µM
O=c1ccc2ccccc2o1 [COUMARIN] | 22.6 | 99.98 | – | – | – | – | – | – | –
Nc1nc2c(ncn2COCCO)c(=O)[nH]1 [ACYCLOVIR] | 0.08 | – | – | – | – | – | – | – | –
COc1ccc(S(=O)(=O)N(C)/N=C/c2ccc(OC)c(OC)c2)cc1 | – | – | < 5 | 31.5 | Unstable | Stable | 43 | 12.8 | –
COc1ccc(CCN(C)S(=O)(=O)c2ccc(-c3ccccc3)cc2)cc1OC | – | – | 7.1 | 46.8 | Stable | Stable | 26.6 | 56.3 | IC50 [16]: 20.8 µM; inhibition in vivo at 6.25 µmol/kg (Mus musculus [17]): 95%; inhibition in vivo at 6.25 µmol/kg (Mus musculus [18]): 22.2%; inhibition in vivo at 25 µmol/kg (Mus musculus [19]): 80%; Emax (Homo sapiens [20]): 65%; inhibition in vivo at 25 µmol/kg (Mus musculus [21]): 55.1%; Emax [22]: 60%
COc1ccc(/C=N/NS(=O)(=O)c2ccc(C(F)(F)F)cc2)cc1OC | – | – | < 5 | < 5 | Unstable | Stable | 29 | 19.7 | –
COc1ccc(CCN(C)S(=O)(=O)c2ccc([N+](=O)[O-])cc2)cc1OC | – | – | < 5 | < 5 | Stable | Stable | 19 | < 5 | –
O=C(O)c1cc(/N=N/c2ccc(S(=O)(=O)Nc3ccccn3)cc2)ccc1O [SULFASALAZINE] | 0.45 | – | – | – | – | – | – | – | Papp (in vitro [2]): 0.3 ×10⁻⁶ cm/s
